This is an account of results in patent US20050256179A1, “Selective pharmacologic inhibition of protein trafficking and related methods of treating human diseases” (priority 2003, published 2005).

One test relates to calnexin. The test is described as follows: Calnexin expression by Western blotting (control). The class given is cell-based. As for the experimental part:
(§1) The culture medium was removed by vacuuming (for attached cells) or by low speed centrifugation (for suspension cells) for 5-7 minutes at room temperature. The cells were wasedh twith PBS, spun at 1200 rpm and the cell pellets were kept on ice. 300 μl/2.0×10^7 cells of ice cold lysis buffer was added with freshly added protease inhibitors. Cell pellets were gently resuspended and incubated on ice for at least 30 min, vortexed a few times during incubation. Cell lysate was spun at 14,000 rpm for 2-5 min at 4° C. The supernatant was transferred to a new microfuge tube and the pellet was discarded. An aliquot of sample was mixed with an equal volume of 2× sample buffer (InVitrogen), and stored at −80° C. Protein concentration was determined by using “BCA protein assay reagent kit” from Pierce.
(§2) Protein samples (in sample buffer) were boiled for 1-3 minutes and put on ice. Same amount of protein were loaded on the NuPage gel (InVitrogen). […]
(§3) To further examine the putative protein trafficking effects of AVP 893, other proteins in this pathway were tested in vitro in B16 and other cell lines. […] Other cell lines were tested for their expression of GS28 and nicastrin and found to respond similarly to drug, although quantitative differences were evident. […]
On the technique in general: Immunoblotting shows a protein as a band on a membrane.

A further test concerns nicastrin. As to the kind of experiment: Nicastrin expression/maturation by Western blotting. The format is cell-based. As for the experimental part: as §1, §2, §3
A further test relates to HSV-2. The test is described as follows: HSV-2 plaque formation in Vero cells. The class given is cell-based. As for the experimental part: An important potential consequence of blocking normal vesicle movement between the ER and golgi is the inhibition of viral protein maturation and intracellular propagation. Most viruses rely on the classical ER-to-golgi pathway for assimilating its proteins and, ultimately, infectivity. Brefeldin A causes the accumulation of viral proteins in the ER-golgi. The capacity of AVP 893 to inhibit viral propagation was tested in vitro by infecting Vero cells with HSV-2 and observing the effect of increasing concentrations of drug (FIG. 44). Vero cells (1 million/ml) were cultured overnight and inoculated with about 150 PFU of live type 2 Herpes Virus (HSV-2, ATCC) about 1 hour after addition of AVP 893. After 48 hours, media was removed and the cells washed with saline and stained with Biological Plaque Stain for 20 min. One ml of water was added and the liquid removed before quantifying virus by enumerating PFU.

Test [1] deals with PC12 pheochromocytoma cells. The test is described as follows: Norepinephrine release and dopamine re-uptake in PC12 cells. The format is cell-based. The note with it: not shown. From the text: The proposed mechanism of the AVP compounds on intracellular protein transit also allows certain predictions as to other effects and non-effects that these compounds might share. For example, inhibition of vesicle fusion or budding between the ER and golgi should not affect exocytosis as would be expected of a post-golgi active compound such as Monensin. AVP 893 has minimal effects on the expression of proteins involved in exocytosis, particularly VAMP, SNAP23 (non-neuronal cells), and SNAP25 (neuronal cells).

In a further test the test system is mouse spleen cells. As to the kind of experiment: Proliferation of IL-4/anti-CD40 Ab-stimulated mouse spleen cells. The class given is cell-based. The settings on record: read-out: anti-proliferative potency. As for the experimental part:
BALB/c spleen cells were cultured for 20 hours in the presence of stimulus+/−AVP 893 (100 ng/ml) and harvested and prepared as described in FIG. 17. Stimulus conditions include: LPS (10 μg/ml), IL-4 (10 ng/ml) plus anti-CD40 Ab (100 ng/ml), PMA (10 ng/ml) plus ionomycin (100 nM), or Con A (5 μg/ml). […] This experiment was carried out as described for FIG. 21, except that different AVP compounds with high (AVP 893, 5 nM), medium (AVP 26297, 50 nM), and low (AVP 25630, 500 nM) anti-proliferative potency were tested and compared. AVP 893 was tested at 1, 10, and 100 ng/ml; AVP 26297 was tested at 1, 10, 100, and 1000 ng/ml; AVP 25630 was tested at 10, 100, and 1000 ng/ml.

Another test concerns HSV. The test is described as follows: Guinea pig topical HSV model. The format is in vivo. The settings on record: data not shown. How it is done: (§4) Representative viruses from families likely to utilize the golgi were tested. […] (data not shown).
Test [2] has as its system viruses from families likely to utilize the golgi. As to the kind of experiment: In vitro testing of other viral families. The format is cell-based. The settings on record: Table 4. How it is done:
The effect of AVP 893 on the spread of viral infection was further investigated. AVP 893 (at 300 ng/ml) was applied 16 hr prior to virus inoculation. Time points shown in FIG. 45 represent the hours after virus inoculation. […] In addition to the immunocytochemistry work shown in FIG. 45, extensive in vitro plaque assays were performed on HSV-1 and -2, as well as other families of virus that use the golgi in their life cycle (see Table 2).
as §4

Regarding `O=C(Nc1ccc(-c2nc3cc(NC(=O)C4CCCCC4)ccc3[nH]2)cc1)C1CCCCC1` [AVP 893], in the test with calnexin (drug-treated cell lines), the levels of calnexin entry is on record as “unchanged”. Further, the calnexin expression entry in the test with calnexin (stimulated BALB/c spleen cells, 100 ng/ml, 20 hours) is given as “minimally affected”. Also, the “IC50 for mature nicastrin expression” value in the test with nicastrin (3T3 cells, overnight) is 10 and 100 ng/ml. In addition, the “levels of mature nicastrin” value in the test on nicastrin (3T3 fibroblast cell line) is “virtually eliminated”. The plaque formation result with HSV-2 (HSV-2, 48 hours) is on record as “suppressed plaque formation at all concentrations tested”. Moreover, in the test with HSV-2 (about 150 PFU HSV-2, 48 hours), the “concentration giving total block of plaque formation” value amounted to 300 ng/mL. In addition, the “release of norepinephrine, re-uptake of dopamine” value in test [1] was “does not affect the release of norepinephrine or the re-uptake of dopamine”. The IC50 in the test on mouse spleen cells was 5 nM. For the same molecule, the “viral activity in vivo” value in the test with HSV is reported as “may inhibit viral activity in vivo”. Also, the “spread of other viral families” value in test [2] is recorded as “inhibited”.
